Results: US7645765B2, “Use of moxaverin for treating erectile dysfunction, forms of dementia or diseases associated to an arteriosclerotic occlusion” (Molecular and Clinical Drug Research, priority 2001, dated 2010)
Values after ≈ are worked out from the molar mass of the structure shown. Read-outs that look alike come from different tables or passages of the source. Blank lines part the entries; values can stand above or below the compound they belong to.

Legend:
[1] = for pH: 26.6° C.
Method: Moxaverin hydrochloride was dissolved completely, as a pure substance, in increasing mass proportions (see Table 1), […], respectively (manufactured by Sigma, PEG 200 and 400, <1% H2O), while stirring constantly, […]

[2] = cited from earlier work
[3] = Solubility of moxaverin hydrochloride in undiluted PEG 200 / PEG 400 at 37° C., pH 7.4 adjustment and dilution with Tyrode's solution; assay type: physicochemical
Method: Moxaverin hydrochloride was dissolved completely, as a pure substance, in increasing mass proportions (see Table 1), in 10 ml commercially available polyethylene glycol having an average molecular weight of 200 and 400, respectively (manufactured by Sigma, PEG 200 and 400, <1% H2O), while stirring constantly, at a temperature of 37° C.
Subsequently, the dissolved moxaverin was converted to an aqueous solution, while stirring constantly, by adding 1×Tyrode's solution with a normal extracellular electrolyte composition.
To determine the pH dependence of the solution behavior of moxaverin hydrochloride, a pH of 7.4 was adjusted in another series of experiments, after complete dissolution in undiluted PEG, by adding NaOH.

[4] = Direct dissolving of moxaverin HCl in 5-10% diluted PEG; assay type: physicochemical; settings: 5-10% PEG 400 or PEG 200 in H2O or Tyrode's solution, 37° C.
Method: In comparison, an attempt was made to dissolve moxaverin HCl in 5-10% PEG diluted with H2O and Tyrode's solution, respectively. (In other words, analogous to the series of experiments shown in the table, 15 to 40 mg moxaverin HCl were added to 10 ml 10% PEG 400, or 7.5 to 20 mg moxaverin HCl were added to 10 ml 5% PEG 400, and stirred at 37° C.) However, directly dissolving the pure substance in diluted PEG was not possible either in diluted PEG 400 or in diluted PEG 200.

[5] = Activity of moxaverin HCl dissolved in pH-neutral PEG solution; settings: pH-neutral diluted PEG solution
[6] = Solubility in water / aqueous solution; assay type: physicochemical
Method: Also, this low concentration of moxaverin would be difficult to compensate by means of the administration of larger volumes. In addition, the stability of active substances in highly concentrated solutions is generally greater than in solutions having a low concentration. In the form of the free base, moxaverin is practically insoluble in water (<1 mg/ml).

[7] = system: patients having erectile dysfunction; experiment: Patient study: intracavernous injection of aqueous solutions of moxaverin; assay type: in vivo, human
Method: Twenty patients having a completely clarified genesis of erectile dysfunction were given intracavernous injections (injection therapy of erectile tissue) of aqueous solutions of moxaverin. In this connection, 1 ml of an injection solution containing 1 to 10 mg moxaverin hydrochloride per ml end volume, in Tyrode's buffer, at a pH=7.4 and an end concentration of 2.5% PEG 400 (in the case of 1 mg moxaverin HCl/ml) up to 25% PEG 400 (in the case of 10 mg moxaverin HCl/ml) were administered per individual injection.

[8] = after oral administration; cited from earlier work
[9] = Stability of pH-neutral aqueous PEG solutions of moxaverin; assay type: physicochemical
smooth muscle cells = settings: more effective than papaverin; cited from earlier work
[10] = 150 mg in 10 ml PEG 200, 37° C.
[11] = 150 mg in 10 ml PEG 400, 37° C.
[12] = 200 mg in 10 ml PEG 200, 37° C.
[13] = 200 mg in 10 ml PEG 400, 37° C.
[14] = 250 mg in 10 ml PEG 200, 37° C.
[15] = 250 mg in 10 ml PEG 400, 37° C.
[16] = 300 mg in 10 ml PEG 200, 37° C.
[17] = 300 mg in 10 ml PEG 400, 37° C.
[18] = 350 mg in 10 ml PEG 200, 37° C.
[19] = 350 mg in 10 ml PEG 400, 37° C.
[20] = 400 mg in 10 ml PEG 200, 37° C.
[21] = 400 mg in 10 ml PEG 400, 37° C.

Solubility [1]: Dissolved | maximum brought into solution in EtOH [1]: ≤ 200 mg/mL | pH ([1]; 10 mg/ml in ethanol 90%): 3.49 | pH ([1]; 20 mg/ml in ethanol 90%): 3.36 | pH ([1]; 30 mg/ml in ethanol 90%): 3.30 | pH ([1]; 40 mg/ml in ethanol 90%): 3.19 | pH ([1]; 50 mg/ml in ethanol 90%): 3.13 | pH ([1]; 60 mg/ml in ethanol 90%): 3.11 | pH ([1]; 100 mg/ml in ethanol 90%): 3.00 | pH ([1]; 200 mg/ml in ethanol 90%): 2.96 | concentration at which moxaverin HCl precipitated after neutralization ([3]; PEG 200, pH 7.4): ≥ 35000 µg/mL | moxaverin concentration achieved in undiluted polyethylene glycol 400 ([3]; undiluted PEG 400, 37° C.): up to 40 mg/ml | directly dissolving the pure substance in diluted PEG [4]: not possible | maximum brought into solution in H2O [6]: < 1 mg/mL
Compound: CCc1cc2cc(OC)c(OC)cc2c(Cc2ccccc2)n1.Cl [moxaverin hydrochloride]
maximum concentration of moxaverin HCl in aqueous solution ([2]; aqueous solutions having a physiological pH): ≤ 1 mg/mL | activity of the dissolved moxaverin HCl [5]: active

pain in connection with the injection ([7]; intracavernous injection): No pain was observed | Solubility at pH 7.4 [3, 10]: Yes | pH [3, 10]: 3.05 | Solubility at pH 7.4 [3, 11]: Yes | pH [3, 11]: 2.53 | Solubility at pH 7.4 [3, 12]: Yes | pH [3, 12]: 3.06 | Solubility at pH 7.4 [3, 13]: Yes | pH [3, 13]: 2.33 | Solubility at pH 7.4 [3, 14]: Yes | pH [3, 14]: 2.97 | Solubility at pH 7.4 [3, 15]: Yes | pH [3, 15]: 2.27 | Solubility at pH 7.4 [3, 16]: Yes | pH [3, 16]: 2.95 | Solubility at pH 7.4 [3, 17]: Yes | pH [3, 17]: 2.30 | Solubility at pH 7.4 [3, 18]: No | pH [3, 18]: 2.87 | Solubility at pH 7.4 [3, 19]: Yes | pH [3, 19]: 2.22 | Solubility at pH 7.4 [3, 20]: No | pH [3, 20]: 2.75 | Solubility at pH 7.4 [3, 21]: Yes | pH [3, 21]: 2.12 | solution behaviour after pH neutralization ([3]; PEG 400, high concentrations, pH 7.4): remained in solution | maximum moxaverin concentration in the finished aqueous medicinal solution ([3]; PEG as solubilizer, upper limit 30% PEG): approximately 12 mg/ml | precipitation on dilution of pH-neutral solutions ([3]; low PEG concentrations of 5% and less): did not precipitate | Solubility ([3]; undiluted polyethylene glycol (PEG), 37 °C, organic solvent or mixture, thermodynamic from solid, undiluted PEG, read-out: maximum solubility in undiluted PEG): ~40 mg/mL (≈ 130 mM) | time the solutions remained stable without precipitation [9]: more than six months
Compound: CCc1cc2cc(OC)c(OC)cc2c(Cc2ccccc2)n1 [moxaverin, 1-benzyl-3-ethyl-6,7-dimethoxyisoquinoline]
side effects such as priapism ([7]; intracavernous injection): not observed | cases with sufficiently strong penile erection ([7]; intracavernous, 1 to 10 mg moxaverin hydrochloride in 1 ml, 20 patients): more than 90% | degree of erection E ([7]; scale from 0 to 5, intracavernous injection): 4-5 | toxicity relative to papaverin [8]: ten times less toxic | solubility in water ([2]; free base, water): < 1 mg/mL | behaviour on dilution with 1×Tyrode's solution ([3]; dissolved in PEG, diluted as desired): without the dissolved moxaverin precipitating | effectiveness as musculotropic spasmolytic relative to parent substance papaverin (smooth muscle cells): 2.5 ×
